Laboratory results as given in US10202370B2, “Benzimidazole derivatives as selective proteine kinase inhibitors” (AB SCIENCE, priority 2013, dated 2019).

biological target: c-kit WT (Homo sapiens (Human), UniProt P10721); assay: Proliferation assay (CellTiter-Blue) on BaF3 Kit WT cell line; type: cell-based; settings: BaF3 Kit WT cell line (murine Ba/F3 expressing Human Kit WT, with murine SCF), 48 hours
Protocol: Procedures of C-Kit WT Inhibition Assays:
Colorimetric cell proliferation and viability assay (reagent CellTiter-Blue purchased from Promega cat N°G8081) was performed on BaF3 Kit WT cell line.
A total of 2.10^4 cells/50 μl were seeded per well of a 96-wells plate. Treatment was initiated by addition of a 2× drug solution of ½ serial dilutions ranging from 0 to 10 μM. After incubating for 48 hours at 37° C., 10 μl of a ½ dilution of CellTiter-Blue reagent was added to each well and the plates were returned to the incubator for an additional 4 hours. The fluorescence intensity from the CellTiter-Blue reagent is proportional to the number of viable cells and data were recorded (544Ex/590Em) using a POLARstar OMEGA microplate reader (BMG LabteckSarl). A background control without cells was used as a blank. The positive control of the assay corresponds to the cell proliferation obtained in the absence of drug treatment (100% proliferation). Each sample was done in triplicate. The results were expressed as a percentage of the proliferation obtained in absence of treatment. All drugs were prepared as 20 mM stock solutions in DMSO and conserved at −80° C. Drug dilutions were made fresh in medium before each experiment. A DMSO control was included in each experiment.
The cell line expressing Human Kit WT was derived from the murine IL3-dependent Ba/F3 proB lymphoid cells. Ba/F3 Kit WT cells were maintained in RPMI medium containing 10% FCS and supplemented with 250 ng/ml of recombinant murine SCF.

Chain of c-kit WT (P10721 26-976): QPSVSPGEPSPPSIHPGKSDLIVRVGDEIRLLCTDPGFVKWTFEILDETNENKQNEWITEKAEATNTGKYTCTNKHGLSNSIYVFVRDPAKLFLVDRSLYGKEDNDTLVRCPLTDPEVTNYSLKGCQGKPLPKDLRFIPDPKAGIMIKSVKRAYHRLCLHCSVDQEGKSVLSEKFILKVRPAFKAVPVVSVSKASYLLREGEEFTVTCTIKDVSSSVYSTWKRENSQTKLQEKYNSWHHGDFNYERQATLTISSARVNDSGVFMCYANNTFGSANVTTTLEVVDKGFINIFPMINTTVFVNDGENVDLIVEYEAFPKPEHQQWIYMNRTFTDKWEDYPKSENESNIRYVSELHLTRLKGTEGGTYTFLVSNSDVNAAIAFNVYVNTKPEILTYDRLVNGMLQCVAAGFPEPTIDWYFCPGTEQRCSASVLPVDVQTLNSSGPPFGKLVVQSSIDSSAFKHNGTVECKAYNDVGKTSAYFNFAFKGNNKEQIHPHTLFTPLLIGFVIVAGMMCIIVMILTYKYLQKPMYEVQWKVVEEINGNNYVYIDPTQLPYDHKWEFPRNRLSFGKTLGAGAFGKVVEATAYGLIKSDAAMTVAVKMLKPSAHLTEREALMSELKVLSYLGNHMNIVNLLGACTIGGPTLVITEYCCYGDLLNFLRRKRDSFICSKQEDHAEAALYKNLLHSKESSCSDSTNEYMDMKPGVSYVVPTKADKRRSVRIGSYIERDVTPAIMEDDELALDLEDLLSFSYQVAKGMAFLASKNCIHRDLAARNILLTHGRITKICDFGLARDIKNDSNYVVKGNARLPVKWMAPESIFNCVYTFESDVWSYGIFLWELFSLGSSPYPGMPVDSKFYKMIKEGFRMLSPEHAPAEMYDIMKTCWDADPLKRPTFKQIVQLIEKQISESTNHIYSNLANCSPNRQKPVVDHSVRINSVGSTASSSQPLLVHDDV

SMILES | IC50 [nM]
CCn1c(-c2cccc(C(F)F)c2)nc2cc(Nc3nc(-c4ccncc4)cs3)c(C)cc21 [Compound 103] | ≤ 1000
Cc1cc2nc(Cc3ccccc3)[nH]c2cc1Nc1nc(-c2cccnc2)cs1 [Compound 022, (2-Benzyl-6-methyl-3H-benzoimidazol-5-yl)-(4-pyridin-3-yl-thiazol-2-yl)-amine] | 1000 to 10000
COc1cccc(-c2nc3cc(Nc4nc(-c5ccncc5)cs4)c(C)cc3n2C)c1 [Compound 125, [2-(3-Methoxy-phenyl)-1,6-dimethyl-1H-benzoimidazol-5-yl]-(4-pyridin-4-yl-thiazol-2-yl)-amine] | ≤ 1000
Cc1cc2nc(-c3cc(CN4CCOCC4)cc(C(F)(F)F)c3)[nH]c2cc1Nc1nc(-c2cccnc2)cs1 [Compound 020, [6-Methyl-2-(3-morpholin-4-ylmethyl-5-trifluoromethyl-phenyl)-3H-benzoimidazol-5-yl]-(4-pyridin-3-yl-thiazol-2-yl)-amine] | ≤ 1000
Cc1cc2nc(-c3cccc(OC(F)(F)F)c3)n(C)c2cc1Nc1nc(-c2cccnc2)cs1 [Compound 117, [3,6-Dimethyl-2-(3-trifluoromethoxy-phenyl)-3H-benzoimidazol-5-yl]-(4-pyridin-3-yl-thiazol-2-yl)-amine] | 1000 to 10000
CCn1c(-c2cccc(C(F)(F)F)c2)nc2cc(Nc3nc(-c4ccncc4)cs3)c(C)cc21 [Compound 105, [1-Ethyl-6-methyl-2-(3-trifluoromethyl-phenyl)-1H-benzoimidazol-5-yl]-(4-pyridin-4-yl-thiazol-2-yl)-amine] | ≤ 1000
Cc1cc2nc(CN3CCOCC3)[nH]c2cc1Nc1nc(-c2cccnc2)cs1 [Compound 064, (6-Methyl-2-morpholin-4-ylmethyl-3H-benzoimidazol-5-yl)-(4-pyridin-3-yl-thiazol-2-yl)-amine] | 1000 to 10000
Cc1cc2nc(-c3ccc(CN4CCN(C)CC4)cc3)[nH]c2cc1Nc1nccc(-c2cccnc2)n1 [Compound 009, {6-Methyl-2-[4-(4-methyl-piperazin-1-ylmethyl)-phenyl]-3H-benzoimidazol-5-yl}-(4-pyridin-3-yl-pyrimidin-2-yl)-amine] | 1000 to 10000
Cc1cc2nc(-c3cccc(C(F)(F)F)c3)[nH]c2cc1Nc1nc(-c2ccc(C#N)cc2)cs1 [Compound 070, 4-{2-[6-Methyl-2-(3-trifluoromethyl-phenyl)-3H-benzoimidazol-5-ylamino]-thiazol-4-yl}-benzonitrile] | ≤ 1000
Cc1cc2nc(-c3cccc(C(F)(F)F)c3)[nH]c2cc1Nc1nc(-c2ccncc2)cs1 [Compound 033, [6-Methyl-2-(3-trifluoromethyl-phenyl)-3H-benzoimidazol-5-yl]-(4-pyridin-4-yl-thiazol-2-yl)-amine] | ≤ 1000
Cc1cccc(-c2nc3cc(C)c(Nc4nc(-c5cccnc5)cs4)cc3[nH]2)c1 [Compound 011, (6-Methyl-2-m-tolyl-3H-benzoimidazol-5-yl)-(4-pyridin-3-yl-thiazol-2-yl)-amine] | ≤ 1000
Cc1cccc(-c2nc3cc(C)c(Nc4nc(-c5cccnc5)cs4)cc3n2C)c1 [Compound 118, (3,6-Dimethyl-2-m-tolyl-3H-benzoimidazol-5-yl)-(4-pyridin-3-yl-thiazol-2-yl)-amine] | 1000 to 10000
Cc1cc2c(cc1Nc1nc(-c3cccnc3)cs1)nc(-c1cccc(N3CCN(C)CC3)c1)n2C [Compound 095, {1,6-Dimethyl-2-[3-(4-methyl-piperazin-1-yl)-phenyl]-1H-benzoimidazol-5-yl}-(4-pyridin-3-yl-thiazol-2-yl)-amine] | 1000 to 10000
Cn1c(-c2cccc(OC(F)(F)F)c2)nc2cc(Nc3nc(-c4cccnc4)cs3)ccc21 [Compound 092, [1-Methyl-2-(3-trifluoromethoxy-phenyl)-1H-benzoimidazol-5-yl]-(4-pyridin-3-yl-thiazol-2-yl)-amine] | 1000 to 10000
Cc1cc2nc(-c3cccc(OC(F)(F)F)c3)[nH]c2cc1Nc1nc(-c2ccncc2)cs1 [Compound 047, [6-Methyl-2-(3-trifluoromethoxy-phenyl)-3H-benzoimidazol-5-yl]-(4-pyridin-4-yl-thiazol-2-yl)-amine] | ≤ 1000
Cc1cc2nc(CN3CCOCC3)[nH]c2cc1Nc1ncc(-c2ccncc2)o1 [Compound 055, (6-Methyl-2-morpholin-4-ylmethyl-3H-benzoimidazol-5-yl)-(5-pyridin-4-yl-oxazol-2-yl)-amine] | 1000 to 10000
Cc1cc2nc(-c3cccc(C(F)(F)F)c3)[nH]c2cc1Nc1ncc(-c2cccnc2)o1 [Compound 007, [6-Methyl-2-(3-trifluoromethyl-phenyl)-3H-benzoimidazol-5-yl]-(5-pyridin-3-yl-oxazol-2-yl)-amine] | 1000 to 10000

SMILES | IC50 [nM]
Cc1cc2nc(-c3ccc(C(F)(F)F)cc3)[nH]c2cc1Nc1nc(-c2cccnc2)cs1 [Compound 021, [6-Methyl-2-(4-trifluoromethyl-phenyl)-3H-benzoimidazol-5-yl]-(4-pyridin-3-yl-thiazol-2-yl)-amine] | 1000 to 10000
Cc1cc2nc(-c3cccc(Cl)c3)[nH]c2cc1Nc1nc(-c2cccnc2)cs1 [Compound 032, [2-(3-Chloro-phenyl)-6-methyl-3H-benzoimidazol-5-yl]-(4-pyridin-3-yl-thiazol-2-yl)-amine] | ≤ 1000
Cc1cc2nc(-c3ccc(C(F)(F)F)cc3)[nH]c2cc1Nc1nccc(-c2cccnc2)n1 [Compound 027, [6-Methyl-2-(4-trifluoromethyl-phenyl)-3H-benzoimidazol-5-yl]-(4-pyridin-3-yl-pyrimidin-2-yl)-amine] | 1000 to 10000
Cc1cc2nc(-c3cc(CN4CCCCC4)cc(C(F)(F)F)c3)[nH]c2cc1Nc1nccc(-c2cccnc2)n1 [Compound 035, [6-Methyl-2-(3-piperidin-1-ylmethyl-5-trifluoromethyl-phenyl)-3H-benzoimidazol-5-yl]-(4-pyridin-3-yl-pyrimidin-2-yl)-amine] | ≤ 1000
Cc1cc2nc(-c3ccc(CN4CCN(C)CC4)cc3)[nH]c2cc1Nc1nc(-c2cncnc2)cs1 [Compound 065, {6-Methyl-2-[4-(4-methyl-piperazin-1-ylmethyl)-phenyl]-3H-benzoimidazol-5-yl}-(4-pyrimidin-5-yl-thiazol-2-yl)-amine] | 1000 to 10000
CCS(=O)(=O)Nc1cccc(-c2nc3cc(Nc4nc(-c5ccncc5)cs4)c(C)cc3n2C)c1 [Compound 134, Ethanesulfonic acid {3-[1,6-dimethyl-5-(4-pyridin-4-yl-thiazol-2-ylamino)-1H-benzoimidazol-2-yl]-phenyl}-amide] | 1000 to 10000
Cc1cc2nc(-c3cc(C(C)(C)C)ccc3OCCN(C)C)[nH]c2cc1Nc1nccc(-c2cccnc2)n1 [Compound 036, {2-[5-tert-Butyl-2-(2-dimethylamino-ethoxy)-phenyl]-6-methyl-3H-benzoimidazol-5-yl}-(4-pyridin-3-yl-pyrimidin-2-yl)-amine] | 1000 to 10000
Cc1cc2nc(-c3cncc(C(F)(F)F)c3)[nH]c2cc1Nc1nc(-c2cccnc2)cs1 [Compound 049, [6-Methyl-2-(5-trifluoromethyl-pyridin-3-yl)-3H-benzoimidazol-5-yl]-(4-pyridin-3-yl-thiazol-2-yl)-amine] | ≤ 1000
Cc1cc2nc(-c3ccc(C)c(C(F)(F)F)c3)[nH]c2cc1Nc1nccc(-c2cccnc2)n1 [Compound 041, [6-Methyl-2-(4-methyl-3-trifluoromethyl-phenyl)-3H-benzoimidazol-5-yl]-(4-pyridin-3-yl-pyrimidin-2-yl)-amine] | ≤ 1000
Cc1cc2nc(-c3cccc(C(F)(F)F)c3)n(C)c2cc1Nc1nc(-c2cccnc2)cs1 [Compound 116, [3,6-Dimethyl-2-(3-trifluoromethyl-phenyl)-3H-benzoimidazol-5-yl]-(4-pyridin-3-yl-thiazol-2-yl)-amine] | 1000 to 10000
Cc1cc2nc(-c3ccc(F)cc3)[nH]c2cc1Nc1nc(-c2cccnc2)cs1 [Compound 060, [2-(4-Fluoro-phenyl)-6-methyl-1H-benzoimidazol-5-yl]-(4-pyridin-3-yl-thiazol-2-yl)-amine] | 1000 to 10000
Cc1cccc(-c2nc3cc(C)c(Nc4nc(-c5ccc(C#N)cc5)cs4)cc3[nH]2)c1 [Compound 074, 4-[2-(6-Methyl-2-m-tolyl-3H-benzoimidazol-5-ylamino)-thiazol-4-yl]-benzonitrile] | ≤ 1000
Cc1cc2[nH]c(-c3ccc(C(F)F)cc3)nc2cc1Nc1nc(-c2cccnc2)cs1 [Compound 097, [2-(4-Difluoromethyl-phenyl)-6-methyl-1H-benzoimidazol-5-yl]-(4-pyridin-3-yl-thiazol-2-yl)-amine] | ≤ 1000
Cc1cc2nc(-c3cc(CN4CCCC4)cc(C(F)(F)F)c3)[nH]c2cc1Nc1nc(-c2cccnc2)cs1 [Compound 023, [6-Methyl-2-(3-pyrrolidin-1-ylmethyl-5-trifluoromethyl-phenyl)-3H-benzoimidazol-5-yl]-(4-pyridin-3-yl-thiazol-2-yl)-amine] | 1000 to 10000
Cc1ccc(-c2nc3cc(C)c(Nc4nc(-c5cccnc5)cs4)cc3[nH]2)cc1 [Compound 004, (6-Methyl-2-p-tolyl-3H-benzoimidazol-5-yl)-(4-pyridin-3-yl-thiazol-2-yl)-amine] | 1000 to 10000
Cc1cc2nc(-c3cccc(OC(F)(F)F)c3)[nH]c2cc1Nc1nc(-c2cccnc2)cs1 [Compound 026] | ≤ 1000
